Experimental data reported in patent publication US20120328711A1, “Antimicrobial system for selective, site-activated binding at target sites” (priority 2011, published 2012).

Assay: Peroxide retention after desiccation and rehydration (peroxide check strips)
Type: physicochemical
Details: 1 g-10 g extract in 20 ml 35% hydrogen peroxide, heated at 80° C., desiccated to 5 ml, rehydrated; colorimetric strips

Oc1ccc(C=Cc2cc(O)cc(O)c2)cc1 [resveratrol, Resveratrol]
peroxide retention capability: relatively less ability to form stable perhydrates
